According to ChEMBL document CHEMBL5223062, “Tumor pyruvate kinase M2 modulators: a comprehensive account of activators and inhibitors as anticancer agents” (RSC Med Chem, 2021):

Assays:
PC-3 = assay: Antiproliferative activity against human PC-3 cells assessed as cell growth inhibition; type: functional, cell-based
HeLa = assay: Antiproliferative activity against human HeLa cells assessed as cell growth inhibition; type: functional, cell-based
HCT-116 = assay: Antiproliferative activity against human HCT-116 cells assessed as cell growth inhibition; type: functional, cell-based
Pyruvate kinase PKM [1] = biological target: T1, Pyruvate kinase PKM (Homo sapiens, UniProt P14618); assay: Activation of PKM2 (unknown origin)
Target sequence in this assay (P14618 whole entry): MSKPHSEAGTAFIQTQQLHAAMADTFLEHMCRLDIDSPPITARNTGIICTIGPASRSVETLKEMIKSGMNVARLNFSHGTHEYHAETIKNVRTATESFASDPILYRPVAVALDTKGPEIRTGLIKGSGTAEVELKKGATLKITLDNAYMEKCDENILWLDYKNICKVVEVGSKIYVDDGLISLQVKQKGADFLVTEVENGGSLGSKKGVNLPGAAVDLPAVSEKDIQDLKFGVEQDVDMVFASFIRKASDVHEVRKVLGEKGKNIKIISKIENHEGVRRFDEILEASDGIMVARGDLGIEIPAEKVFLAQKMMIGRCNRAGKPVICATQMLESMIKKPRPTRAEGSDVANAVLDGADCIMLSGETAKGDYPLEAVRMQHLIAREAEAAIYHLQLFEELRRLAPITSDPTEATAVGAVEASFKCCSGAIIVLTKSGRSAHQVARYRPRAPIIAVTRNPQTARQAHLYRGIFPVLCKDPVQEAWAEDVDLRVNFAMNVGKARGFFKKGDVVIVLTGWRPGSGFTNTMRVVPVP

Pyruvate kinase PKM [2] = biological target: T1, Pyruvate kinase PKM; assay: Binding affinity to PKM2 (unknown origin) assessed as Gibbs free energy
Target sequence in this assay (P14618 2-531 limits assumed): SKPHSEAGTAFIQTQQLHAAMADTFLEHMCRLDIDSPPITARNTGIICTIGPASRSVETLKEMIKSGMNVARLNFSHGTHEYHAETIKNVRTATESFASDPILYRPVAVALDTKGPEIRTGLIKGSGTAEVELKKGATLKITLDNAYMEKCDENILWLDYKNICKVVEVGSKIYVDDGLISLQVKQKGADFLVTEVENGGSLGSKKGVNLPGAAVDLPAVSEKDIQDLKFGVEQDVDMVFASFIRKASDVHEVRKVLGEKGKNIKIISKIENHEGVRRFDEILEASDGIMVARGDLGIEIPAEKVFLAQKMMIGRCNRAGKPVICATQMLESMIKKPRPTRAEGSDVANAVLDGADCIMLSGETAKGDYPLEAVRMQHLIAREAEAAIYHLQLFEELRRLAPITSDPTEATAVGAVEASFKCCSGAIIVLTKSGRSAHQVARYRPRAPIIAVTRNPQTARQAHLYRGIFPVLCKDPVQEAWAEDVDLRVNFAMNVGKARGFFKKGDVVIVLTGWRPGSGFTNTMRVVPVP

Pyruvate kinase PKM [3] = biological target: T1, Pyruvate kinase PKM; assay: Inhibition of PKM2 (unknown origin)
Target sequence in this assay (P14618 whole entry): as the sequence (P14618 whole entry) above

DLD-1 = assay: Antiproliferative activity against human DLD-1 cells assessed as cell growth inhibition; type: functional, cell-based
HT-29 = assay: Antiproliferative activity against human HT-29 cells assessed as cell growth inhibition; type: functional, cell-based
Pyruvate kinase PKM [4] = biological target: T1, Pyruvate kinase PKM; assay: Activation of PKM2 in human NCI-H1299 cells; type: cell-based
Target sequence in this assay (P14618 whole entry): as above

Pyruvate kinase PKM [5] = biological target: T1, Pyruvate kinase PKM; assay: Inhibition of PKM2 (unknown origin) at 10 uM relative to control
Target sequence in this assay (P14618 2-531 limits assumed): as the sequence (P14618 2-531 limits assumed) above

NCI-H1299 [6] = assay: Inhibition of glycolysis in human NCI-H1299 cells; type: functional
Pyruvate kinase PKM [7] = biological target: T1, Pyruvate kinase PKM; assay: Inhibition of PKM1 (unknown origin) at 10 uM relative to control
Target sequence in this assay (P14618 2-531 limits assumed): as above

NCI-H1299 [8] = assay: Antiproliferative activity against human NCI-H1299 cells assessed as cell growth inhibition; type: functional, cell-based

Work on `O=S(=O)(Nc1ccc(C2(O)CSC(=S)N2Cc2ccccc2)cc1)c1ccc2c(c1)OCCO2` (stereo not given) yielded an IC50 (PC-3) of 460 nM, an IC50 (HeLa) of 460 nM and an IC50 (HCT-116) of 460 nM. The AC50 (Pyruvate kinase PKM [1]) was 3140 nM.

Molecule `COc1ccc(-c2cc(=O)c3c(OC)c(OC)c(OC)c(OC)c3o2)cc1` [TANGERETIN] has an AC50 (Pyruvate kinase PKM [1]) of 950 nM.

Molecule `O=C(c1cc(C(F)(F)F)n[nH]1)N(Cc1ccc(O)cc1F)CC1CCC1` has an AC50 (Pyruvate kinase PKM [1]) of 10 nM.

For `Nc1cccc(S(=O)(=O)N2CCCN(S(=O)(=O)c3ccc4c(c3)OCCO4)CC2)c1`, the AC50 (Pyruvate kinase PKM [1]) was 30 nM.

With `Cn1cc(C(=O)c2cccc(Cl)c2Cl)cc1C(=O)NCCNC(=O)c1cc(C(=O)c2cccc(Cl)c2Cl)cn1C` the AC50 (Pyruvate kinase PKM [1]) was 10 nM.

With `CC(C)=CC[C@@H](O)C1=CC(=O)c2c(O)ccc(O)c2C1=O` [SHIKONIN] the deltaG (Pyruvate kinase PKM [2]) was -7.98 kcal/mol and the IC50 (Pyruvate kinase PKM [3]) was 1420 nM.

`O=c1cc(-c2ccc(O)cc2)oc2cc(O)cc(O)c12` [APIGENIN] was tested, and the IC50 (DLD-1) was 89500 nM, the IC50 (HCT-116) was 27900 nM and the IC50 (HT-29) was 2000 nM.

`Cc1cc2c(s1)c1cnn(Cc3ccccc3F)c(=O)c1n2C` was tested, and the AC50 (Pyruvate kinase PKM [4]) was 60 nM.

For `COc1cc(/C=C/C(=O)O)cc(OC)c1O` [SINAPINATE], the AC50 (Pyruvate kinase PKM [1]) was 26200 nM.

In the case of `CC(C)=CCC1=C(O)C(=O)c2ccccc2C1=O` [LAPACHOL], the deltaG (Pyruvate kinase PKM [2]) is reported as -9.34 kcal/mol and the IC50 (Pyruvate kinase PKM [3]) is reported as 1400 nM.

`O=C1CCc2cc(S(=O)(=O)Nc3ccc(F)c(Cl)c3)c(F)cc2N1` gave an AC50 (Pyruvate kinase PKM [1]) of 90 nM.

For `O=P(O)(O)OC[C@H]1O[C@](O)(COP(=O)(O)O)[C@@H](O)[C@@H]1O` [FOSFRUCTOSE], the AC50 (Pyruvate kinase PKM [1]) was 7000 nM.

In the case of `O=c1c(O)c(-c2cc(O)c(O)c(O)c2)oc2cc(O)cc(O)c12` [MYRICETIN], the AC50 (Pyruvate kinase PKM [1]) is reported as 510 nM.

`COc1cccc(Cn2ncc3c4sc([S+](C)[O-])cc4n(C)c3c2=O)c1` (stereo not given) gave an AC50 (Pyruvate kinase PKM [4]) of 70 nM.

In the case of `C=C1C(=O)O[C@H]2C1CCC(C)=C1CC[C@@](C)(O)[C@@H]12` (stereo not given in full), the AC50 (Pyruvate kinase PKM [1]) is reported as 6 nM.

With `O=C(O)/C=C/c1ccc(O)cc1` [COUMARIC ACID] the AC50 (Pyruvate kinase PKM [1]) was 22200 nM.

In the case of `Cc1ccc(C)n1-c1ccc(O)c(C(=O)O)c1`, the inhibition (Pyruvate kinase PKM [5]) is reported as 81%, the “inhibition (INH)” value (NCI-H1299 [6]) is reported as 18.5% and the inhibition (Pyruvate kinase PKM [7]) is reported as 34%.

With `C=C1C(=O)O[C@@H]2[C@H]3O[C@]3(C)CC/C=C(/C(=O)OCCOCCOC(=O)/C3=C/CC[C@@]4(C)O[C@@H]4[C@H]4OC(=O)C(=C)[C@@H]4CC3)CC[C@@H]12` the AC50 (Pyruvate kinase PKM [1]) was 15 nM.

`CC1=C(CSC(=S)N2CCCCC2)C(=O)c2ccccc2C1=O` gave an IC50 (NCI-H1299 [8]) of 2950 nM, an IC50 (HeLa) of 2950 nM and an IC50 (HCT-116) of 2950 nM.

`CCCCCN1/C(=C\C=C\C2N(CCCC)c3cc(Cl)c(Cl)cc3N2CCCCC)N(CCCC)c2cc(Cl)c(Cl)cc21` (stereo not given) gave an inhibition (Pyruvate kinase PKM [5]) of 86% and an inhibition (Pyruvate kinase PKM [7]) of 31%.

`COc1ccccc1N1CCN(C(=O)c2ccc(NS(=O)(=O)c3cccc4cccnc34)cc2)CC1` showed an AC50 (Pyruvate kinase PKM [1]) of 10 nM.

With `O=C(O)CN1C(=O)/C(=C/c2ccc(OC(=O)c3ccccc3I)cc2)SC1=S` the inhibition (Pyruvate kinase PKM [5]) was 84% and the inhibition (Pyruvate kinase PKM [7]) was 36%.
